Source: patent US20110118238A1, “2-ANILINOPURIN-8-ONES AS INHIBITORS OF TTK/MPS1 FOR THE TREATMENT OF PROLIFERATIVE DISORDERS” (ASTRAZENECA AB, priority 2007, published 2011)

Legend:
[1] = target: T1, N-terminal GST tagged full length human TTK kinase (Homo sapiens, UniProt P33981); assay: In Vitro TTK Kinase Assay 1 (AlphaScreen); assay type: biochemical; conditions: recombinant TTK, 10 μM ATP, read-out: EAA: Enzyme Assay Activity (In Vitro TTK kinase assay 1)
T1 construct: N-terminal GST tagged full length human TTK kinase; GST (N); made in house; host or cells: insect cells
T1 sequence (P33981 1-857): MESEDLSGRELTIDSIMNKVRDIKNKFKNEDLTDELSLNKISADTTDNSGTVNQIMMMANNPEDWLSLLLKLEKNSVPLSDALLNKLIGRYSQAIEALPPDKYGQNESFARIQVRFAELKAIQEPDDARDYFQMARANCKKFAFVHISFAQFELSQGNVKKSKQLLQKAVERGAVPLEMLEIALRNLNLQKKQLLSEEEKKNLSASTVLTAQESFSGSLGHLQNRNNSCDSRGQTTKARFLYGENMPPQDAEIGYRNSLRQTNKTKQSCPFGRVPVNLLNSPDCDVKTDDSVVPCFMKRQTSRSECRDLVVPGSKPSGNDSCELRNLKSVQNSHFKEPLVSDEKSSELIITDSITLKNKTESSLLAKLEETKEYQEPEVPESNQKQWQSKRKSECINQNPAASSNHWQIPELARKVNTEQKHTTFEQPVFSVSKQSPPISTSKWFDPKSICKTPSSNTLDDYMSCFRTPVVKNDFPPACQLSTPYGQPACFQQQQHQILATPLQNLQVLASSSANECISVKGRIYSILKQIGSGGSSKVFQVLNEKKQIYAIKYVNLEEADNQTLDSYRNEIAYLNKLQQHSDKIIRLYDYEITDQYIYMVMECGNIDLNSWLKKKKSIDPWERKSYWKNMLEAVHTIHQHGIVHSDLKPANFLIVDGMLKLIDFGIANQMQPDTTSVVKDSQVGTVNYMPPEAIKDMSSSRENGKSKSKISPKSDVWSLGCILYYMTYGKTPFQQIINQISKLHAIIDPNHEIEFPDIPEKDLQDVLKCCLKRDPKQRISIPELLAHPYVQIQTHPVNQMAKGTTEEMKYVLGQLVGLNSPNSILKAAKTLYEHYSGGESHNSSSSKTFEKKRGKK
Method: Aliquots (2 μL) of each compound dilution were placed into wells of a Greiner 384-well low volume white polystyrene plate (Greiner Bio-one).
The resultant signals arising from laser light excitation at 680 nm were read using a Packard Envision instrument.

[2] = target: T1, N-terminal GST tagged full length human TTK kinase; assay: In Vitro TTK Kinase Assay 2 (Caliper LabChip LC3000); assay type: biochemical; conditions: recombinant TTK, 12 μM ATP, read-out: EAA2: Enzyme Assay Activity (In Vitro TTK kinase assay 2)
Method: Each reaction was stopped by the addition of EDTA to a concentration of 40 mM in a solution which also comprised 0.1% coating reagent (Caliper LS), 100 mM HEPES pH 7.5, 0.015% v/v Brij™-35 and 5% DMSO. The stopped enzyme reactions were sipped through capillaries onto a Caliper chip where the peptide substrate and phosphorylated product were separated and detected via laser-induced fluorescence.

SMILES	IC50 [1] [nM]	IC50 [2] [nM]
COc1cc(NS(C)(=O)=O)ccc1Nc1ncc2c(n1)n(C1CCCC1)c(=O)n2C [Example 7, N-{4-[(9-Cyclopentyl-7-methyl-8-oxo-8,9-dihydro-7H-purin-2-yl)-amino]-3-methoxyphenyl}methanesulfonamide]	714	30.7
COc1cc(C2CCN(C)CC2)ccc1Nc1ncc2c(n1)n(C(C)C)c(=O)n2C [Example 47, 9-Isopropyl-2-{[2-methoxy-4-(1-methylpiperidin-4-yl)phenyl]-amino}-7-methyl-7,9-dihydro-8H-purin-8-one]	5650	–
CN1CCC(NC(=O)c2ccc(Nc3ncc4c(n3)n(C3CCCC3)c(=O)n4C)c(Cl)c2)CC1 [Example 15, 3-Chloro-4-[(9-cyclopentyl-7-methyl-8-oxo-8,9-dihydro-7H-purin-2-yl)amino]-N-(1-methylpiperidin-4-yl)benzamide]	3230	235
COc1cc(C2CCN(C)CC2)ccc1Nc1ncc2c(n1)n(C1CCCC1)c(=O)n2C [Example 28, 9-Cyclopentyl-2-{[2-methoxy-4-(1-methylpiperidin-4-yl)-phenyl]amino}-7-methyl-7,9-dihydro-8H-purin-8-one]	55.4	14.3
CN1C2CCCC1CC(NC(=O)c1ccc(Nc3ncc4c(n3)n(C3CCCC3)c(=O)n4C)c(F)c1)C2 (stereo not drawn) [Example 16, 4-[(9-Cyclopentyl-7-methyl-8-oxo-8,9-dihydro-7H-purin-2-yl)-amino]-3-fluoro-N-(9-methyl-9-azabicyclo[3.3.1]non-3-yl)-benzamide]	1680	313
COc1cc(C(=O)N2CCCC2)ccc1Nc1ncc2c(n1)n(C1CCCC1)c(=O)n2C [Example 10, 9-Cyclopentyl-2-{[2-methoxy-4-(pyrrolidin-1-ylcarbonyl)-phenyl]amino}-7-methyl-7,9-dihydro-8H-purin-8-one]	1050	19.4
COc1cc(N2CCCN(C)CC2)ccc1Nc1ncc2c(n1)n(C1CCCC1)c(=O)n2C [Example 20, 9-Cyclopentyl-2-{[2-methoxy-4-(4-methyl-1,4-diazepan-1-yl)-phenyl]amino}-7-methyl-7,9-dihydro-8H-purin-8-one]	249	39.5
COc1cc(NC2CCN(C)CC2)ccc1Nc1ncc2c(n1)n(C1CCCC1)c(=O)n2C [Example 22, 9-Cyclopentyl-2-({2-methoxy-4-[(1-methylpiperidin-4-yl)-amino]-phenyl}amino)-7-methyl-7,9-dihydro-8H-purin-8-one]	317	118
CCOc1cc(OC2CCN(C)CC2)ccc1Nc1ncc2c(n1)n(C1CCCC1)c(=O)n2C [Example 26, 9-Cyclopentyl-2-({2-ethoxy-4-[(1-methylpiperidin-4-yl)-oxy]-phenyl}amino)-7-methyl-7,9-dihydro-8H-purin-8-one]	50.9	26
CCn1c(=O)n(C2CCCC2)c2nc(Nc3ccc(C(=O)NC)cc3OC)ncc21 [Example 31, 4-[(9-Cyclopentyl-7-ethyl-8-oxo-8,9-dihydro-7H-purin-2-yl)-amino]-3-methoxy-N-methylbenzamide]	371	16.4
COc1cc(CCN2CCN(C)CC2)ccc1Nc1ncc2c(n1)n(C1CCCC1)c(=O)n2C [Example 27, 9-Cyclopentyl-2-({2-methoxy-4-[2-(4-methylpiperazin-1-yl)-ethyl]phenyl}amino)-7-methyl-7,9-dihydro-8H-purin-8-one]	288	24.1
CCN1CCC(NC(=O)c2cc(F)c(Nc3ncc4c(n3)n(C3CCCC3)c(=O)n4C)cc2F)CC1 [Example 17, 4-[(9-Cyclopentyl-7-methyl-8-oxo-8,9-dihydro-7H-purin-2-yl)-amino]-N-(1-ethylpiperidin-4-yl)-2,5-difluorobenzamide]	9240	2010
CCn1c(=O)n(C2CCCC2)c2nc(Nc3ccc(S(N)(=O)=O)cc3)ncc21 [Example 34, 4-[(9-Cyclopentyl-7-ethyl-8-oxo-8,9-dihydro-7H-purin-2-yl)-amino]benzenesulfonamide]	1040	96.3
Cn1c(=O)n(C2CCCC2)c2nc(Nc3ccc(S(N)(=O)=O)cc3)ncc21 [Example 11, 4-[(9-Cyclopentyl-7-methyl-8-oxo-8,9-dihydro-7H-purin-2-yl)-amino]benzenesulfonamide]	9650	167
COc1cc(OC2CCN(C)C2)ccc1Nc1ncc2c(n1)n(C1CCCC1)c(=O)n2C (stereo not drawn) [Example 24, 9-Cyclopentyl-2-({2-methoxy-4-[(1-methylpyrrolidin-3-yl)-oxy]-phenyl}amino)-7-methyl-7,9-dihydro-8H-purin-8-one]	151	17.3
CN1CCC(NC(=O)c2ccc(Nc3ncc4c(n3)n(C3CCCC3)c(=O)n4C)cc2F)CC1 [Example 8, 4-[(9-Cyclopentyl-7-methyl-8-oxo-8,9-dihydro-7H-purin-2-yl)-amino]-2-fluoro-N-(1-methylpiperidin-4-yl)benzamide]	3910	633
COc1cc(C(=O)N(C)CC2CCN(C(C)C)C2)ccc1Nc1ncc2c(n1)n(C1CCCC1)c(=O)n2C (stereo not drawn) [Example 53, 4-[(9-Cyclopentyl-7-methyl-8-oxo-8,9-dihydro-7H-purin-2-yl)-amino]-N-[(1-isopropylpyrrolidin-3-yl)methyl]-3-methoxy-N-methylbenzamide]	–	231
COc1cc(C(=O)N2CCC(N3CCCC3)CC2)ccc1Nc1ncc2c(n1)n(C1CCCC1)c(=O)n2C [Example 56, 9-Cyclopentyl-2-({2-methoxy-4-[(4-pyrrolidin-1-ylpiperidin-1-yl)-carbonyl]phenyl}amino)-7-methyl-7,9-dihydro-8H-purin-8-one]	–	67.6
COc1cc(C(=O)O)ccc1Nc1ncc2c(n1)n(C1CCCC1)c(=O)n2C [Example 49, 4-[(9-Cyclopentyl-7-methyl-8-oxo-8,9-dihydro-7H-purin-2-yl)-amino]-3-methoxybenzoic acid]	–	72.4
COc1cc(C(=O)NCCCCN2CCCC2)ccc1Nc1ncc2c(n1)n(C1CCCC1)c(=O)n2C [Example 66, 4-[(9-Cyclopentyl-7-methyl-8-oxo-8,9-dihydro-7H-purin-2-yl)-amino]-3-methoxy-N-(4-pyrrolidin-1-ylbutyl)benzamide]	–	132
CC(C)Oc1ccc(Nc2ncc3c(n2)n(C2CCCC2)c(=O)n3C)cc1 [Example 74, 9-Cyclopentyl-2-[(4-isopropoxyphenyl)amino]-7-methyl-7,9-dihydro-8H-purin-8-one]	–	29.1
COc1cc(C(=O)NCCN(C)C)ccc1Nc1ncc2c(n1)n(C1CCCC1)c(=O)n2C [Example 67, 4-[(9-Cyclopentyl-7-methyl-8-oxo-8,9-dihydro-7H-purin-2-yl)-amino]-N-[2-(dimethylamino)ethyl]-3-methoxybenzamide]	–	119
COCCN1CCN(C(=O)c2ccc(Nc3ncc4c(n3)n(C3CCCC3)c(=O)n4C)c(OC)c2)CC1 [Example 57, 9-Cyclopentyl-2-[(2-methoxy-4-{[4-(2-methoxyethyl)piperazin-1-yl]-carbonyl}phenyl)amino]-7-methyl-7,9-dihydro-8H-purin-8-one]	–	35.6
Cn1c(=O)n(C2CCCC2)c2nc(Nc3ccc(C(=O)c4ccccc4)cc3)ncc21 [Example 71, 2-[(4-Benzoylphenyl)amino]-9-cyclopentyl-7-methyl-7,9-dihydro-8H-purin-8-one]	–	586
COc1cc(OC2CCN(C)C2)ccc1Nc1ncc2c(n1)n(C(C)C)c(=O)n2C (stereo not drawn) [Example 43, 9-Isopropyl-2-({2-methoxy-4-[(1-methylpyrrolidin-3-yl)oxy]-phenyl}amino)-7-methyl-7,9-dihydro-8H-purin-8-one]	–	115
COc1cc(N2CCCN(C)CC2)ccc1Nc1ncc2c(n1)n(C(C)C)c(=O)n2C [Example 48, 9-Isopropyl-2-{[2-methoxy-4-(4-methyl-1,4-diazepan-1-yl)phenyl]-amino}-7-methyl-7,9-dihydro-8H-purin-8-one]	–	136
COc1cc(C(=O)N2CCN(C)CC2)ccc1Nc1ncc2c(n1)n(C1CCCC1)c(=O)n2C [Example 50, 9-Cyclopentyl-2-({2-methoxy-4-[(4-methylpiperazin-1-yl)carbonyl]-phenyl}amino)-7-methyl-7,9-dihydro-8H-purin-8-one]	–	60.3
